# Assay results: EP0025288A1, “Derivatives of monic acid, processes for their preparation, compositions containing them and their preparation” (priority 1979, dated 1981)
# How the values were obtained:
# M pulmonis JB [1] = test: MIC, anti-mycoplasmal, Friis' broth microtiter method; format: cell-based; conditions: read-out: in vitro MIC, BROTH
# M pulmonis JB [2] = test: MIC, anti-mycoplasmal, serial dilution in Friis' agar; format: cell-based; conditions: read-out: in vitro MIC, AGAR
# Strep agalactiae SPA1 = test: MIC, veterinary bacteria; format: cell-based; conditions: veterinary bacteria (Table 2), read-out: MIC
# M hyorhinis ATCC 23234 = test: MIC, anti-mycoplasmal, serial dilution in Friis' agar; format: cell-based; conditions: read-out: in vitro MIC, AGAR
# M hyosynoviae ATCC 25591 = test: as above; format: cell-based; conditions: read-out: in vitro MIC, AGAR
# Past Haemolytica PA5 = test: MIC, veterinary bacteria; format: cell-based; conditions: veterinary bacteria (Table 2), read-out: MIC
# M pneumoniae ATCC 15492 [3] = test: MIC, anti-mycoplasmal, Friis' broth microtiter method; format: cell-based; conditions: read-out: in vitro MIC, BROTH
# M arthritidis ATCC 14124 = test: MIC, anti-mycoplasmal, serial dilution in Friis' agar; format: cell-based; conditions: read-out: in vitro MIC, AGAR
# Past multocida PA2 = test: MIC, veterinary bacteria; format: cell-based; conditions: veterinary bacteria (Table 2), read-out: MIC
# M gallisepticum S6 = test: MIC, anti-mycoplasmal, serial dilution in Friis' agar; format: cell-based; conditions: read-out: in vitro MIC, AGAR
# S dublin S7 = test: MIC, veterinary bacteria; format: cell-based; conditions: veterinary bacteria (Table 2), read-out: MIC
# M suipneumoniae Str 11 = test: MIC, anti-mycoplasmal, Friis' broth microtiter method; format: cell-based; conditions: read-out: in vitro MIC, BROTH
# M fermentans MWKL4 [4] = test: as above; format: cell-based; conditions: read-out: in vitro MIC, BROTH
# M dispar NCTC 10125 = test: as above; format: cell-based; conditions: read-out: in vitro MIC, BROTH
# [5] = tested on: M bovigenitalium ATCC 14173; test: MIC, anti-mycoplasmal, serial dilution in Friis' agar; format: cell-based; conditions: read-out: in vitro MIC, AGAR
# [6] = tested on: Erysipelothrix rhusiopathiae NCTC 8163; test: MIC, veterinary bacteria; format: cell-based; conditions: NCTC8163, veterinary bacteria (Table 2), read-out: MIC
# [7] = tested on: Staph aureus 152 (pen sens); test: MIC, veterinary bacteria; format: cell-based; conditions: Staphylococcus aureus, veterinary bacteria (Table 2), read-out: MIC
# Bord bronchiseptica BO8 = test: MIC, veterinary bacteria; format: cell-based; conditions: veterinary bacteria (Table 2), read-out: MIC
# S typhimurium S18 = test: MIC, veterinary bacteria; format: cell-based; conditions: veterinary bacteria (Table 2), read-out: MIC
# [8] = Serum binding by ultrafiltration; format: in vitro ADME, pig; conditions: pig, serum, compounds at 8 mcg/ml, microbiological assay (B. subtilis ATCC 6633), read-out: % bound to pig serum (converted)
# Experimental: Serum binding was assessed by ultrafiltration of procine serum containing compounds at 8 mcg/ml, and through an Amicon CF50A ultrafiltration cone. Separation of ultrafiltrate was achieved by centrifugation.
# Strep uberis SPU1 = test: MIC, veterinary bacteria; format: cell-based; conditions: veterinary bacteria (Table 2), read-out: MIC
# M fermentans MWKL4 [9] = test: MIC, anti-mycoplasmal, serial dilution in Friis' agar; format: cell-based; conditions: read-out: in vitro MIC, AGAR
# [10] = tested on: Staph aureus B4 (pen resis); test: MIC, veterinary bacteria; format: cell-based; conditions: Staphylococcus aureus, veterinary bacteria (Table 2), read-out: MIC
# M alkalescens NCTC 10135 = test: MIC, anti-mycoplasmal, serial dilution in Friis' agar; format: cell-based; conditions: read-out: in vitro MIC, AGAR
# Staph aureus Oxford = test: MIC, veterinary bacteria; format: cell-based; conditions: Staphylococcus aureus, veterinary bacteria (Table 2), read-out: MIC
# M bovis ATCC 25025 = test: MIC, anti-mycoplasmal, serial dilution in Friis' agar; format: cell-based; conditions: read-out: in vitro MIC, AGAR
# Past multocida PA1 = test: MIC, veterinary bacteria; format: cell-based; conditions: veterinary bacteria (Table 2), read-out: MIC
# M pneumoniae 427a [11] = test: MIC, anti-mycoplasmal, serial dilution in Friis' agar; format: cell-based; conditions: read-out: in vitro MIC, AGAR
# M bovis NCTC 10131 = test: as above; format: cell-based; conditions: read-out: in vitro MIC, AGAR
# E coli E1 = test: MIC, veterinary bacteria; format: cell-based; conditions: veterinary bacteria (Table 2), read-out: MIC
# M dispar H225 = test: MIC, anti-mycoplasmal, Friis' broth microtiter method; format: cell-based; conditions: read-out: in vitro MIC, BROTH
# Strep dysgalaciae SPD1 = test: MIC, veterinary bacteria; format: cell-based; conditions: veterinary bacteria (Table 2), read-out: MIC
# M pneumoniae 427a [12] = test: MIC, anti-mycoplasmal, Friis' broth microtiter method; format: cell-based; conditions: read-out: in vitro MIC, BROTH
# Bord bronchisptica BO9 = test: MIC, veterinary bacteria; format: cell-based; conditions: veterinary bacteria (Table 2), read-out: MIC
# [13] = tested on: Strep suis (group D) SPS11; test: MIC, veterinary bacteria; format: cell-based; conditions: veterinary bacteria (Table 2), read-out: MIC
# E coli NCTC 10418 = test: MIC, veterinary bacteria; format: cell-based; conditions: veterinary bacteria (Table 2), read-out: MIC
# [14] = tested on: M suipneumoniae J2206/183b; test: MIC, anti-mycoplasmal, Friis' broth microtiter method; format: cell-based; conditions: read-out: in vitro MIC, BROTH
# M pneumoniae ATCC 15492 [15] = test: MIC, anti-mycoplasmal, serial dilution in Friis' agar; format: cell-based; conditions: read-out: in vitro MIC, AGAR
# M synoviae ATCC 25204 = test: as above; format: cell-based; conditions: read-out: in vitro MIC, AGAR
compound,measurement,setting,value
"CC(=O)CCCOC(=O)C=C(C)CC1OCC(CC2OC2C(C)C(C)O)C(O)C1O (stereo not drawn) [Example 2, 3-Acetvlpropvl Monate A]",MIC,M pulmonis JB [1],< 0.02 µg/mL
same,MIC,M pulmonis JB [2],≤ 0.02 µg/mL
same,MIC,Strep agalactiae SPA1,2.5 µg/mL
same,MIC,M hyorhinis ATCC 23234,0.312 µg/mL
same,MIC,M hyosynoviae ATCC 25591,0.078 µg/mL
same,MIC,Past Haemolytica PA5,5 µg/mL
same,MIC,M pneumoniae ATCC 15492 [3],0.312 µg/mL
same,MIC,M arthritidis ATCC 14124,2.5 µg/mL
same,MIC,Past multocida PA2,0.039 µg/mL
same,MIC,M gallisepticum S6,2.5 µg/mL
same,MIC,S dublin S7,> 80 µg/mL
same,MIC,M suipneumoniae Str 11,0.156 µg/mL
same,MIC,M fermentans MWKL4 [4],< 0.02 µg/mL
same,MIC,M dispar NCTC 10125,≤ 0.02 µg/mL
same,MIC,[5],≤ 0.02 µg/mL
same,MIC,[6],80 µg/mL
same,MIC,[7],1.25 µg/mL
same,MIC,Bord bronchiseptica BO8,40 µg/mL
same,MIC,S typhimurium S18,> 80 µg/mL
same,fraction unbound,[8],0.76
same,MIC,Strep uberis SPU1,0.312 µg/mL
same,MIC,M fermentans MWKL4 [9],≤ 0.02 µg/mL
same,MIC,[10],1.25 µg/mL
same,MIC,M alkalescens NCTC 10135,< 0.02 µg/mL
same,MIC,Staph aureus Oxford,1.25 µg/mL
same,MIC,M bovis ATCC 25025,< 0.02 µg/mL
same,MIC,Past multocida PA1,0.312 µg/mL
same,MIC,M pneumoniae 427a [11],0.312 µg/mL
same,MIC,M bovis NCTC 10131,< 0.02 µg/mL
same,MIC,E coli E1,> 80 µg/mL
same,MIC,M dispar H225,≤ 0.02 µg/mL
same,MIC,Strep dysgalaciae SPD1,1.25 µg/mL
same,MIC,M pneumoniae 427a [12],0.625 µg/mL
same,MIC,Bord bronchisptica BO9,5 µg/mL
same,MIC,[13],10 µg/mL
same,MIC,E coli NCTC 10418,> 80 µg/mL
same,MIC,[14],0.312 µg/mL
same,MIC,M pneumoniae ATCC 15492 [15],0.312 µg/mL
same,MIC,M synoviae ATCC 25204,< 0.02 µg/mL
